Data reported in PMC6437697 (Journal of Medicinal Chemistry, 2019).

Legend:
Assay in all cases: KINOMEscan
Type in all cases: binding
Conditions in all cases: read-out: % control activity remaining
AKT3 = molecular target: T1, AKT3 (Homo sapiens, UniProt Q9Y243)
T1 construct: purchased Eurofins DiscoverX KINOMEscan

AMPK-alpha2 = molecular target: T2, AMPK-alpha2 (Homo sapiens, UniProt P54646)
T2 construct: purchased Eurofins DiscoverX KINOMEscan

CDC2L2 = molecular target: T3, CDC2L2 (Homo sapiens, UniProt Q9UQ88)
T3 construct: purchased Eurofins DiscoverX KINOMEscan
T3 sequence (Q9UQ88 1-783): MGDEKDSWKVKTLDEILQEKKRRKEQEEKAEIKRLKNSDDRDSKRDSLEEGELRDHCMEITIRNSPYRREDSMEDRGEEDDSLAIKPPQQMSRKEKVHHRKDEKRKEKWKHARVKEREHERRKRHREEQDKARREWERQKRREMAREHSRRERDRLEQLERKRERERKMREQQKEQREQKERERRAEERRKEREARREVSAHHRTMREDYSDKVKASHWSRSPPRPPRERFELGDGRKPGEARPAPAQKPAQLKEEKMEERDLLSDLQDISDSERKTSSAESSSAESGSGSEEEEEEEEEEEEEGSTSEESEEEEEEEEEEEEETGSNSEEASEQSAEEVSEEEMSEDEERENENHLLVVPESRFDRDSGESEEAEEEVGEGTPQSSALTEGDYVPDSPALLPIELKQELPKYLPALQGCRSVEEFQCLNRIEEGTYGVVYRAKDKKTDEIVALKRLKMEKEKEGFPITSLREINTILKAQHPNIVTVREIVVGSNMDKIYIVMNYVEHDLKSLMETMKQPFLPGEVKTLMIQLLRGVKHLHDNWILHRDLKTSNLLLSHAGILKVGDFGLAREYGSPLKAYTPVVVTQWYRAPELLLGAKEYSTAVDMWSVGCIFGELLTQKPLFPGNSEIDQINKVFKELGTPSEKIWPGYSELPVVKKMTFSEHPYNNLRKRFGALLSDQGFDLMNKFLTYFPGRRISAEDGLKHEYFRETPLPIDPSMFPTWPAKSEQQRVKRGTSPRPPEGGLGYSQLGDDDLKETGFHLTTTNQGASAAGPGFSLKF

CDC2L5 = molecular target: T4, CDC2L5 (Homo sapiens, UniProt Q14004)
T4 construct: purchased Eurofins DiscoverX KINOMEscan

CSNK1G3 = molecular target: T5, CSNK1G3 (Homo sapiens, UniProt Q9Y6M4)
T5 construct: purchased Eurofins DiscoverX KINOMEscan

CSNK2A1 = molecular target: T6, CSNK2A1 (Homo sapiens, UniProt P68400)
T6 construct: purchased Eurofins DiscoverX KINOMEscan

CSNK2A2 = molecular target: T7, CSNK2A2 (Homo sapiens, UniProt P19784)
T7 construct: purchased Eurofins DiscoverX KINOMEscan

IRAK1 = molecular target: T8, IRAK1 (Homo sapiens, UniProt P51617)
T8 construct: purchased Eurofins DiscoverX KINOMEscan

[1] = molecular target: T9, JAK2(JH1domain-catalytic) (Homo sapiens, UniProt O60674)
T9 construct: JAK2(JH1domain-catalytic); purchased Eurofins DiscoverX KINOMEscan

LCK = molecular target: T10, LCK (Homo sapiens, UniProt P06239)
T10 construct: purchased Eurofins DiscoverX KINOMEscan

MYLK = molecular target: T11, MYLK (Homo sapiens, UniProt Q15746)
T11 construct: purchased Eurofins DiscoverX KINOMEscan

NEK7 = molecular target: T12, NEK7 (Homo sapiens, UniProt Q8TDX7)
T12 construct: purchased Eurofins DiscoverX KINOMEscan

PLK2 = molecular target: T13, PLK2 (Homo sapiens, UniProt Q9NYY3)
T13 construct: purchased Eurofins DiscoverX KINOMEscan

RIPK4 = molecular target: T14, RIPK4 (Homo sapiens, UniProt P57078)
T14 construct: purchased Eurofins DiscoverX KINOMEscan
T14 sequence (P57078 1-832): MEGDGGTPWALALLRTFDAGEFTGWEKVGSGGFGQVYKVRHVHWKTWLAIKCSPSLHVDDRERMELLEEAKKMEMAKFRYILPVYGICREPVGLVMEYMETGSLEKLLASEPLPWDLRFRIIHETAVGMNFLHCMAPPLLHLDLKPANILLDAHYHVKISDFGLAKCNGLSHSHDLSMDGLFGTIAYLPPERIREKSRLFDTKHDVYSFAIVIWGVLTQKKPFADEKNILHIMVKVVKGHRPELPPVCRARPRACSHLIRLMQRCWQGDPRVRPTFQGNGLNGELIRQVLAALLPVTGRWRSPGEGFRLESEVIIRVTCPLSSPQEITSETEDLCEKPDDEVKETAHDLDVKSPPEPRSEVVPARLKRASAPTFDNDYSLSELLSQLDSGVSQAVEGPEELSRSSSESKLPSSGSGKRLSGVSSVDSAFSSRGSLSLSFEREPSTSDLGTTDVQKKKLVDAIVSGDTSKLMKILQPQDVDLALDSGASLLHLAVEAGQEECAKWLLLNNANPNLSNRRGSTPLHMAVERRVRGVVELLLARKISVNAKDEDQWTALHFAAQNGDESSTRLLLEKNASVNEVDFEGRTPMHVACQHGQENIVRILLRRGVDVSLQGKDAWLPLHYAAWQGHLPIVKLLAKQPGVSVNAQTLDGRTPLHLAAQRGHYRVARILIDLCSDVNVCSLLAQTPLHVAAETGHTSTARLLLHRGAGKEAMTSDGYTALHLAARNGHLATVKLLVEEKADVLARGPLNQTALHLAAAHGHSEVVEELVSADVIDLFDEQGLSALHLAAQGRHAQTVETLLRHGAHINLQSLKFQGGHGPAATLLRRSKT

TNK2 = molecular target: T15, TNK2 (Homo sapiens, UniProt Q07912)
T15 construct: purchased Eurofins DiscoverX KINOMEscan

TRKA = molecular target: T16, TRKA (Homo sapiens, UniProt P04629)
T16 construct: purchased Eurofins DiscoverX KINOMEscan

TSSK1B = molecular target: T17, TSSK1B (Homo sapiens, UniProt Q9BXA7)
T17 construct: purchased Eurofins DiscoverX KINOMEscan
T17 sequence (Q9BXA7 1-367): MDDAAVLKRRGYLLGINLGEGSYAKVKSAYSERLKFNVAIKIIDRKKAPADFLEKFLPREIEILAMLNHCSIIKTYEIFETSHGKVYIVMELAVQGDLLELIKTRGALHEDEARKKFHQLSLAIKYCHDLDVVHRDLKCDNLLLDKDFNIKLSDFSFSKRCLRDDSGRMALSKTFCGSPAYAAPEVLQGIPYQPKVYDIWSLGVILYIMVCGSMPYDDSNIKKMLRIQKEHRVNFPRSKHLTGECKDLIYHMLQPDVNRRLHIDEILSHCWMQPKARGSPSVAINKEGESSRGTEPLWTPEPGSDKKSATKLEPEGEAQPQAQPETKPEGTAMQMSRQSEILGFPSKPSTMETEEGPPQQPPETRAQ

T9 sequence (O60674 849-1132 limits assumed): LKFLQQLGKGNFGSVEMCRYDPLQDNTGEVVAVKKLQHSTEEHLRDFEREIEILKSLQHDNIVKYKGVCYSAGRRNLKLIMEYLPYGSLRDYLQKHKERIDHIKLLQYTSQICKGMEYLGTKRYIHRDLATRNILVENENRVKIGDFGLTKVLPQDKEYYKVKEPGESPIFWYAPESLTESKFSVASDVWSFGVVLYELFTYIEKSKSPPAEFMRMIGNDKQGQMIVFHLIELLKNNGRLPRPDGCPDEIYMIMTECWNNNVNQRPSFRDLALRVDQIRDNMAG
T8 sequence (P51617 whole entry): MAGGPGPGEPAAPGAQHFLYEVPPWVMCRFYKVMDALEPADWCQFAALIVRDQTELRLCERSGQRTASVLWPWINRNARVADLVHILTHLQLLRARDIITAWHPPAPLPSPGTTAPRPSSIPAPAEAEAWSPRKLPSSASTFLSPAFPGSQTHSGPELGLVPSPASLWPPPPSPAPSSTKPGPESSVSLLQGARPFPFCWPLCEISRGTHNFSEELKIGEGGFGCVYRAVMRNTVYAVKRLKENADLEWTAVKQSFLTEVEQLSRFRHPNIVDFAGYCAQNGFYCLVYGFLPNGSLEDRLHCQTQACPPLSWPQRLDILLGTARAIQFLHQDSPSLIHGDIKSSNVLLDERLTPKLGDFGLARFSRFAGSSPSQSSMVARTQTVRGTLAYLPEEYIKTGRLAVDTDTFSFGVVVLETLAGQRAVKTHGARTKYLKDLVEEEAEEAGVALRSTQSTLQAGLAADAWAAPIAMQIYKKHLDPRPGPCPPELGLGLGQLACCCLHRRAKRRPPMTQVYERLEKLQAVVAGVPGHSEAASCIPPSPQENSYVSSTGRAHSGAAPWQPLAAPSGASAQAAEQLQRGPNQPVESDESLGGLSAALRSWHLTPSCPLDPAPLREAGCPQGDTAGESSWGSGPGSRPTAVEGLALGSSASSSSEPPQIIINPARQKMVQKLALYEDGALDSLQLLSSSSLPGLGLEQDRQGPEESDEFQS
T2 sequence (P54646 whole entry): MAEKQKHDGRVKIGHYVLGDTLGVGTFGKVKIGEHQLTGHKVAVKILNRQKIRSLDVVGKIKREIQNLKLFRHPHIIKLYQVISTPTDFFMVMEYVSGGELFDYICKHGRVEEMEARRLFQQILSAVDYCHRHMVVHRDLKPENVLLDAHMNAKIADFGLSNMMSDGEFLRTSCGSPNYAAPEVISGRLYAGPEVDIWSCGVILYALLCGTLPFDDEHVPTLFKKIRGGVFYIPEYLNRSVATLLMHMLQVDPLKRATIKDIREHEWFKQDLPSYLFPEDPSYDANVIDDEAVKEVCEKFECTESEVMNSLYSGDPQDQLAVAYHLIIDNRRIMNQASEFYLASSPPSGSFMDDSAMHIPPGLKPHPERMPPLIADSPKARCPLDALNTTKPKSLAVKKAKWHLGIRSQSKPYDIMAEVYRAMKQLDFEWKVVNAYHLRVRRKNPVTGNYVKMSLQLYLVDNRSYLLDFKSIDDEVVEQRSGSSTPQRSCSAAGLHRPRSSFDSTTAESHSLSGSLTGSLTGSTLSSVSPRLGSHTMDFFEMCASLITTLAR
T13 sequence (Q9NYY3 whole entry): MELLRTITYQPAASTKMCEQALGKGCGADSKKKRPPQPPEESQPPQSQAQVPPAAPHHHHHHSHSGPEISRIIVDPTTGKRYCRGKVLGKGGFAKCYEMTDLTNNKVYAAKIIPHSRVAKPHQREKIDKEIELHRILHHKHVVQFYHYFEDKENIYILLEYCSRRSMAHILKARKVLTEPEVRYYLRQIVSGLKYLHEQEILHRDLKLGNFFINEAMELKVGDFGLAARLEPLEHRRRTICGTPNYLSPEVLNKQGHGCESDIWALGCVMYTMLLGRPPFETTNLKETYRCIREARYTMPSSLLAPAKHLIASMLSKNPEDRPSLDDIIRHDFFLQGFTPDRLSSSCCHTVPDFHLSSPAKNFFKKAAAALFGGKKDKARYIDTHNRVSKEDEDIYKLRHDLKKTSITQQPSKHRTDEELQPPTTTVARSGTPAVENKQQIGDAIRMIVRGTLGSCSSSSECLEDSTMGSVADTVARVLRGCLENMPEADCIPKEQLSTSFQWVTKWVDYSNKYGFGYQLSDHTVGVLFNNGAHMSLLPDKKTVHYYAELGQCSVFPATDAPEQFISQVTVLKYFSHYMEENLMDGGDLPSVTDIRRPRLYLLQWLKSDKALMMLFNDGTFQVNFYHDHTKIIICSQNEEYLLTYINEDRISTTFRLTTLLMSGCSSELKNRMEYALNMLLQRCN
T7 sequence (P19784 whole entry): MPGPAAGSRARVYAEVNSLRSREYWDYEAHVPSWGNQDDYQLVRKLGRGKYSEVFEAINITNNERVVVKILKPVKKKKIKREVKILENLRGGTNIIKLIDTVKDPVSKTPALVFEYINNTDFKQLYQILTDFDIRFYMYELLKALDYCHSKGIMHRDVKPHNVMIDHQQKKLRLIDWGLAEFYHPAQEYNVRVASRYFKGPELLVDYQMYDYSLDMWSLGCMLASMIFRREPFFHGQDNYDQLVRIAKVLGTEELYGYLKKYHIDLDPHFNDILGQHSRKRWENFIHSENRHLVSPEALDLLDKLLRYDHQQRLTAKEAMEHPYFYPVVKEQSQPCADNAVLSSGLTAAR
T12 sequence (Q8TDX7 whole entry): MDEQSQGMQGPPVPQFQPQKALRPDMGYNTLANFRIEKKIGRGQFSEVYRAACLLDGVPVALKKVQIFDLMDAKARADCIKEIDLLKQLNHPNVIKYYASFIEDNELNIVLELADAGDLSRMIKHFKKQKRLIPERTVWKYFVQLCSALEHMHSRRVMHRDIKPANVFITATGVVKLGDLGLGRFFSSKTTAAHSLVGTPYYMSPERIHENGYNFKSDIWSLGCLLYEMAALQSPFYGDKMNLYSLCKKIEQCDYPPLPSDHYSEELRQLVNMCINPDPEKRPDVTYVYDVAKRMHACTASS
T11 sequence (Q15746 whole entry): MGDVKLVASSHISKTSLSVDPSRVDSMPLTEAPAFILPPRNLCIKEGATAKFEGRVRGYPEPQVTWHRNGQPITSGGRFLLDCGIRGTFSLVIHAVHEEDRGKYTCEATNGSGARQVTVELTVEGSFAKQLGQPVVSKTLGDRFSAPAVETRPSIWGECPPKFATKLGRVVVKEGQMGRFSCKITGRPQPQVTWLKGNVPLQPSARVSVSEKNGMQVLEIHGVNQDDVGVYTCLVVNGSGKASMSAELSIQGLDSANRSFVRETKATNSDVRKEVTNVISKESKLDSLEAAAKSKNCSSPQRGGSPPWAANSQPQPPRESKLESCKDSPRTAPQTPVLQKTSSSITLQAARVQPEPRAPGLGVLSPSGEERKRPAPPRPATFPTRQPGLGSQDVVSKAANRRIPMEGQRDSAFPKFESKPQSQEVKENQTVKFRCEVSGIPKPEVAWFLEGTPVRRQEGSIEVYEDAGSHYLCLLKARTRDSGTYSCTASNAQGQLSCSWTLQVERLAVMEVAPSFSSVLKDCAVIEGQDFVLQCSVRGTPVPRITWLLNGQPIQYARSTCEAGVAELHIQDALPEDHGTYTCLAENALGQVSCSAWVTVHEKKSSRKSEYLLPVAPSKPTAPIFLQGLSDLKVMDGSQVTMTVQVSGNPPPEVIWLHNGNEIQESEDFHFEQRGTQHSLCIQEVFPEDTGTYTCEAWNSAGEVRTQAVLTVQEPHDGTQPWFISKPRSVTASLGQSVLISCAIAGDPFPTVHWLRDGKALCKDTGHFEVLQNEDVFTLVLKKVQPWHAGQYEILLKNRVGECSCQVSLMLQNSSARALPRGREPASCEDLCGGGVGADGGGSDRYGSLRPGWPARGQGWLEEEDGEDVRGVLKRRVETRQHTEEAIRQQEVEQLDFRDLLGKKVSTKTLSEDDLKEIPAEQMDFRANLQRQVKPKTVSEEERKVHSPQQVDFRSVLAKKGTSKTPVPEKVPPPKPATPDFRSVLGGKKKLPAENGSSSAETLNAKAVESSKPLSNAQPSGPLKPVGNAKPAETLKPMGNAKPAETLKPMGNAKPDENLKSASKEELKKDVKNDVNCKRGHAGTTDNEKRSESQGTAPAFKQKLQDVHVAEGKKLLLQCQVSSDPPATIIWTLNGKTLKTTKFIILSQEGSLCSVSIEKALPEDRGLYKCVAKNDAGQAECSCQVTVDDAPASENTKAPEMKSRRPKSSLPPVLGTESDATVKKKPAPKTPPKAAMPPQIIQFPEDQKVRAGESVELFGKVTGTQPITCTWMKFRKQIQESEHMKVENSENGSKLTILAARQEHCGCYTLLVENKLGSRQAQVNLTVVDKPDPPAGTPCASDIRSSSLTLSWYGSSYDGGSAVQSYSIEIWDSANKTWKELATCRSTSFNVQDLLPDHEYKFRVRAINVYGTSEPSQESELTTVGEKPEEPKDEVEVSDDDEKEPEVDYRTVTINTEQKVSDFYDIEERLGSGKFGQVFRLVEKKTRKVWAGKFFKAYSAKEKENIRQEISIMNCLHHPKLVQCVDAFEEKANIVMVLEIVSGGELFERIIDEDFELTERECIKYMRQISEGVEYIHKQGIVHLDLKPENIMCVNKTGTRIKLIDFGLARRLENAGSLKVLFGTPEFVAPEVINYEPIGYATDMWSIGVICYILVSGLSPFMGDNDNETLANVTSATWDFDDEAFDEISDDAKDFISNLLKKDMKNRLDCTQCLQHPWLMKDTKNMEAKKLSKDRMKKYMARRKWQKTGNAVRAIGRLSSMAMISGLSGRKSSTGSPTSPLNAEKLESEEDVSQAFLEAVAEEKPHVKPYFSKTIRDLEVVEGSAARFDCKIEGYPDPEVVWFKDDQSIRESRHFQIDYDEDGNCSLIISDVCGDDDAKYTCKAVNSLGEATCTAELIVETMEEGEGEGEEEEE

Compound	remaining binding at 1 µM (AKT3) [%]	remaining binding at 1 µM (AMPK-alpha2) [%]	remaining binding at 1 µM (CDC2L2) [%]	remaining binding at 1 µM (CDC2L5) [%]	remaining binding at 1 µM (CSNK1G3) [%]	remaining binding at 1 µM (CSNK2A1) [%]	remaining binding at 1 µM (CSNK2A2) [%]	remaining binding at 1 µM (IRAK1) [%]	remaining binding at 1 µM [1] [%]	remaining binding at 1 µM (LCK) [%]	remaining binding at 1 µM (MYLK) [%]	remaining binding at 1 µM (NEK7) [%]	remaining binding at 1 µM (PLK2) [%]	remaining binding at 1 µM (RIPK4) [%]	remaining binding at 1 µM (TNK2) [%]	remaining binding at 1 µM (TRKA) [%]	remaining binding at 1 µM (TSSK1B) [%]
Clc1cc(NCC2CC2)c2ncc(-c3ccc4[nH]ncc4c3)n2n1 [compound 2, 6-Chloro-N-(cyclopropylmethyl)-3-(1H-indazol-5-yl)imidazo[1,2-b]pyridazin-8-amine]	100	94	100	92	100	85	94	95	91	100	79	97	66	96	86	89	100
O=C(CN1CCOCC1)N[C@H]1CC[C@H](Nc2cc(Cl)nn3c(-c4ccc5[nH]ncc5c4)cnc23)CC1 [compound 26]	100	92	99	84	100	75	100	45	99	87	42	99	100	95	93	19	92
CN1CCC(CNc2cc(Cl)nn3c(-c4cc5nc(Nc6ccccc6)[nH]c5cc4F)cnc23)CC1 [compound 31, 6-Chloro-3-(6-fluoro-2-(phenylamino)-1H-benzo[d]imidazol-5-yl)-N-((1-methylpiperidin-4-yl)methyl)imidazo[1,2-b]pyridazin-8-amine]	90	99	90	96	100	99	100	89	100	82	81	94	90	98	100	96	88
